Laboratory results as given in patent US20170049845A1, “METHODS OF TREATING ALZHEIMER'S DISEASE, HUNTINGTON'S DISEASE, AUTISM, OR OTHER DISORDERS” (Northwestern University, priority 2011, published 2017).
Residues, ends and D or L forms follow the SMILES beside them.

What was measured:
[1] = test system: CA1 pyramidal neurons; test: Protection against human b-amyloid (1-42) toxicity in organotypic hippocampal slice cultures (propidium fluorescence); type: cell-based; details: 5 μg/ml hAβ, 24 hr after application
From the text: FIG. 4 depicts delayed neuronal death produced by Aβ(1-42) in organotypic hippocampal slice cultures upon application of GLYX-13; Mean±SEM propidium fluorescence 24 hr after bath application of Aβ(1-42) alone, versus Aβ(1-42) in the presence of indicated concentrations (μg/ml) of Glyx-13 (*, […], Student's t-test compared to Aβ alone).
To determine whether Glyx-13, by renormalizing activation of NMDA receptors, might protect against the toxicity of hAβ to susceptible neurons in a physiological network milieu, we compared the long-term effects of hAβ in the absence and presence of different concentrations of Glyx-13.

[2] = test system: HD 51 CAG and WT rats; test: Huntington's disease model, serial operant reversal task, phase 3 pseudo-random testing; type: in vivo, rat; details: subcutaneously 20 minutes prior to task
Method: HD 51 CAG and WT (wild type) rats are used in a Huntington's disease model study, testing cognition with serial operant reversal tasks. Rats are dosed according to the following schedule:
The animals are first placed in an acquisition trial. The acquisition trial is an 8-hour testing period where the animal is reinforced with a sucrose food pellet for a “correct” lever press after a variable interval time of 30 seconds. This task requires the animals to learn which lever needs to be activated to gain reinforcement. The time taken to identify the “correct” lever is measured, as well as the number of reinforcers earned, percentage of “correct” lever presses, and errors made (incorrect lever presses). The acquisition trial is performed with access to water ad libidum. […]
The testing session is conducted using a progressive FR schedule for 25 or 30 days. […] The response rate for the left and right lever is recorded, as well as the total number of lever presses for each side, the total number of lever presses combined for each side in a session, the percentage of “correct” lever presses (“correct” lever presses/left lever presses+right lever presses then multiplied by 100 to obtain a percentage), the total reinforcers earned, and the time to complete each session. The rats are given one day off before the second phase of testing begins, with only the weight of the rats being recorded. […]

[3] = test system: Schaffer collateral-CA1 synapses; test: hAβ-induced impairment of LTP at Schaffer collateral-CA1 synapses in acute hippocampal slices; type: cell-based, rat; details: high-frequency Schaffer collateral stimulation 30 min later
From the text: FIG. 5 depicts rescue of Aβ impairment of long-term potentiation (LTP) of synaptic transmission at Schaffer collateral-CA1 synapses in hippocampal slices in presence of GLYX-13. A: Time course of the effect of pressure ejection of Aβ(1-42) into stratum radiatum of field CA1 (Aβ injections; 12 psi/100 ms; filled circles; n=10) on basal synaptic transmission and LTP induced by high-frequency stimulus trains (3×100 Hz/500 ms), compared to vehicle (TFE) injection (open circles; n=8). B: Time course of the effect of pressure ejection of Aβ(1-42) into stratum radiatum of field CA1 in the presence of 1 μM Glyx-13 (Aβ injections; 12 psi/100 ms; filled circles; n=8) on basal synaptic transmission and LTP induced by high-frequency stimulus trains (3×100 Hz/500 ms), compared to vehicle (TFE) injection (open circles; n=8). C: Time course of the effect of pressure ejection of Aβ(1-42) into stratum radiatum of field CA1 in the presence of 1 μM D-cycloserine (Aβ injections; 12 psi/100 ms; filled circles; n=7) on basal synaptic transmission and LTP induced by high-frequency stimulus trains (3×100 Hz/500 ms), compared to vehicle (TFE) injection (open circles; n=8). D: Time course of the effect of pressure ejection of Aβ(1-42) into stratum radiatum of field CA1 in the presence of 100 μM D-Serine (Aβ injections; 12 psi/100 ms; filled circles; n=8) on basal synaptic transmission and LTP induced by high-frequency stimulus trains (3×100 Hz/500 ms), compared to vehicle (TFE) injection (open circles; n=8). Each point in A, B and C is mean±SEM normalized fEPSP slope.
We pressure ejected hAβ in the absence or presence of Glyx-13, D-cycloserine or the full agonist D-serine, into the Schaffer collateral synaptic field in CA1 stratum radiatum of acute in vitro rat hippocampal slices and attempted to evoke LTP 30 min later. FIG. 5A illustrates that hAβ alone caused a significant reduction (˜20%) in the magnitude of LTP elicited by high-frequency Schaffer collateral stimulation.

[4] = test system: low-line rats; test: Conspecific play induced pro-social USVs in low-line rats (autism model); type: in vivo, rat; details: adolescent male low-line rats, 50 mg/kg s.c. 15 min before testing, vs vehicle, P<0.05
Method: FIG. 2 depicts Mean±SEM (A) rates of conspecific play induced pro-social USVs (frequency-modulated 50 kHz calls) in adolescent male low-line rats pretreated with vehicle (1 mg/ml sterile saline s.c.) or (B) GLYX-13 (50 mg/kg s.c.) […] before the start of testing using a within-subjects design. (C) Proportion of total conspecific play induced USVs that were monotonous (i.e., bandwidth less than 7 kHz; n=9 per group. *P<0.05 Fisher PLSD post hoc test, 2 tailed.
Core symptoms of autism (1) deficits in social emotions and motivations, 2) communication problems, and 3) a high incidence of motor abnormalities, especially repetitive behaviors) can be modeled in part in animals using the following behavioral measures, respectively: (1) reduced time spent in social contact; (2) reduced rates of pro-social vocalizations, and (3) disrupted ultrasonic vocalization patterns.
The proportion of total conspecific play induced USVs that were monotonous (i.e., bandwidth less than 7 kHz) is shown in FIG. 2C. n=9 per group. *P<0.05 Fisher PLSD post hoc test, 2 tailed.

[5] = test system: autistic individuals; details: cited from earlier work

SMILES: C[C@@H](O)[C@H](N)C(=O)N1CCC[C@H]1C(=O)N1CCC[C@H]1C(=O)N[C@H](C(N)=O)[C@@H](C)O [GLYX-13, L-threonyl-L-prolyl-L-prolyl-L-threonine amide] (H-TPPT-NH2)
- dose-response relation of neuroprotective potency [1]: U-shaped dose-response relation
- percentage of correct lever presses vs saline injections ([2]; HD animals): higher percentage trends of correct lever presses
- percentage of correct lever presses vs saline injections ([2]; WT animals): higher percentage trends of correct lever presses
- rescue of LTP after hAβ pressure ejection ([3]; 1 μM bath-applied): LTP was restored to normal control levels
- proportion of total USVs that are monotonous (bandwidth less than 7 kHz) [4]: significantly decreased
- rates of play inducing pro-social USVs (frequency-modulated 50 kHz calls) [4]: significantly increased

SMILES: N[C@H](CO)C(=O)O [D-serine]
- rescue of LTP after hAβ pressure ejection [3]: nor the full agonist D-serine (100M, FIG. 5D, open circles) was able to rescue LTP

SMILES: Cc1nc2n(c(=O)c1CCN1CCC(c3noc4cc(F)ccc34)CC1)CCCC2 [risperidone]
- hyperactivity and irritability symptoms ([5]; autism): significantly decrease
- inappropriate speech or social withdrawal ([5]; autism): little to no effect
- side effects ([5]; autism): significant weight gain and sedative side effects

SMILES: N[C@@H]1CONC1=O [D-cycloserine]
- social withdrawal ([5]; autistic individuals (Posey et al., 2004)): significantly improved
- rescue of LTP after hAβ pressure ejection ([3]; 1 μM bath-applied): neither the glycine site partial agonist D-cycloserine (1 μM, FIG. 5C, open circles) nor the full agonist D-serine (100M, FIG. 5D, open circles) was able to rescue LTP
